Where “and” joins values, the source holds several entries; their conditions need not be identical. Equal values may be shown once. After the bases stand the sugars from the 5' end (letter, count) and the backbone: PS all phosphorothioate, else s phosphorothioate and o phosphodiester by linkage. Methylation of C is not given here. e = 2'-O-(2-methoxyethyl) (MOE); k = constrained ethyl (cEt); d = 2'-deoxy (DNA)
Biological target: IRF4
Conditions: ASO

Row | Sequence | target mRNA inhibition (MM.1R, 1 µM) | target mRNA inhibition (SK-MEL-28, 4 µM) [%] | other results
1 | CACCTCTTCACTACCT (sugars k3 d10 k3, PS) | 0% | – | –
2 | CACGGACGGAGGCGGC (sugars k3 d10 k3, PS) | – | 18 | –
3 | CACTACCATATTGGAA (sugars k3 d10 k3, PS) | – | 22 | –
4 | CACTCTTACTCCGCTG (sugars k3 d10 k3, PS) | -12% | – | –
5 | CACTGAACCATGTTCC (sugars k3 d10 k3, PS) | – | 61 | –
6 | CACTTTGTACGGGTCT (sugars k3 d10 k3, PS) | 11% | – | –
7 | CAGAAACCCTCATCAC (sugars k3 d10 k3, PS) | – | 4 | –
8 | CAGAACGAGGTAAATC (sugars k3 d10 k3, PS) | – | 59 | –
9 | CAGAATGAAGTTAAGG (sugars k3 d10 k3, PS) | – | 50 | –
10 | CAGACCTTATGCTTGG (sugars k4 d8 k4, PS) | – | 26 | –
11 | CAGAGCCAACTTATAG (sugars k3 d10 k3, PS) | 30% and 43% | – | –
12 | CAGAGTTGTTCCACCC (sugars k3 d10 k3, PS) | – | 62 | –
13 | CAGATAACGAGGTGCC (sugars k3 d10 k3, PS) | – | 30 | –
14 | CAGATTGAATCCATAT (sugars k3 d10 k3, PS) | 20% | – | –
15 | CAGCAAAACGCAGAGC (sugars k3 d10 k3, PS) | – | 54 | –
16 | CAGCAGGTTTTGAGAC (sugars k3 d10 k3, PS) | – | 20 | –
17 | CAGCATATTACAAACG (sugars k3 d10 k3, PS) | – | 58 | –
18 | CAGCATCTAAGGCAAG (sugars k3 d10 k3, PS) | – | 54 | –
19 | CAGGAAACCGCTGGCA (sugars k3 d10 k3, PS) | – | 74 | –
20 | CAGGAACTGACCTAAC (sugars k3 d10 k3, PS) | -7% | – | –
21 | CAGGCGGACACGCCCG (sugars k3 d10 k3, PS) | -5% | – | –
22 | CAGGGAGCGGCCGTGG (sugars k3 d10 k3, PS) | – | 17 | –
23 | CAGTAACTTGACTTGA (sugars k3 d10 k3, PS) | – | 39 | –

Row | Sequence | target mRNA inhibition (MM.1R, 1 µM) | target mRNA inhibition (SK-MEL-28, 4 µM) [%] | other results
24 | CAGTGACTTGCATCCA (sugars kddddddddddkekek, PS) | 29% | – | –
25 | CAGTGACTTGCATCCA (sugars kdddddddddkekeke, PS) | 19% | – | –
26 | CAGTGACTTGCATCCA (sugars kkddddddddddkeke, PS) | 33% | – | –
27 | CAGTGATGTCAGGTTT (sugars k3 d10 k3, PS) | 62% | – | target mRNA inhibition (MM.1R, 0.074 µM): 22%; target mRNA inhibition (MM.1R, 0.222 µM): 39%; target mRNA inhibition (MM.1R, 0.666 µM): 62%; target mRNA inhibition (MM.1R, 2 µM): 85%
28 | CAGTGATGTCAGGTTT (sugars kdddddddddkekeke, PS) | 48% | – | –
29 | CAGTGATGTCAGGTTT (sugars kkdddddddddkdkdk, PS) | 47% | – | target mRNA inhibition (MM.1R, 0.074 µM): 5%; target mRNA inhibition (MM.1R, 0.222 µM): 23%; target mRNA inhibition (MM.1R, 0.666 µM): 40%; target mRNA inhibition (MM.1R, 2 µM): 67%
30 | CAGTGATGTCAGGTTT (sugars kkdddddddddkekek, PS) | 64% | – | target mRNA inhibition (MM.1R, 0.074 µM): 8%; target mRNA inhibition (MM.1R, 0.222 µM): 28%; target mRNA inhibition (MM.1R, 0.666 µM): 53%; target mRNA inhibition (MM.1R, 2 µM): 77%
31 | CAGTGATGTCAGGTTT (sugars kkkddddddddkekek, PS) | 56% | – | target mRNA inhibition (MM.1R, 0.074 µM): 19%; target mRNA inhibition (MM.1R, 0.222 µM): 40%; target mRNA inhibition (MM.1R, 0.666 µM): 56%; target mRNA inhibition (MM.1R, 2 µM): 74%
32 | CAGTGGAGCTCCACAG (sugars k3 d10 k3, PS) | – | 41 | –
33 | CAGTTGTAAATGAGTC (sugars k2 d9 e3 k2, PS) | 62% | – | target mRNA inhibition (H929, 0.00067 µM): 26%; target mRNA inhibition (H929, 0.002 µM): 46%; target mRNA inhibition (H929, 0.00667 µM): 64%; target mRNA inhibition (H929, 0.02 µM): 72%; target mRNA inhibition (H929, 0.04 µM): 50%; target mRNA inhibition (KMS11, 0.2 µM): 83% and 91%; target mRNA inhibition (MM.1R, 0.074 µM): 10%; target mRNA inhibition (MM.1R, 0.222 µM): 28%; target mRNA inhibition (MM.1R, 0.666 µM): 52%; target mRNA inhibition (MM.1R, 2 µM): 77%
34 | CAGTTGTAAATGAGTC (sugars kdddddddddkekeke, PS) | 62% | – | target mRNA inhibition (H929, 0.00067 µM): 9%; target mRNA inhibition (H929, 0.002 µM): 26%; target mRNA inhibition (H929, 0.00667 µM): 39%; target mRNA inhibition (H929, 0.02 µM): 48%; target mRNA inhibition (H929, 0.04 µM): 27%; target mRNA inhibition (KMS11, 0.2 µM): 62% and 74%; target mRNA inhibition (MM.1R, 0.074 µM): 20%; target mRNA inhibition (MM.1R, 0.222 µM): 36%; target mRNA inhibition (MM.1R, 0.666 µM): 59%; target mRNA inhibition (MM.1R, 2 µM): 79%
35 | CAGTTGTAAATGAGTC (sugars kkddddddddddkeke, PS) | 59% | – | target mRNA inhibition (MM.1R, 0.074 µM): 19%; target mRNA inhibition (MM.1R, 0.222 µM): 35%; target mRNA inhibition (MM.1R, 0.666 µM): 49%; target mRNA inhibition (MM.1R, 2 µM): 73%
36 | CAGTTGTAAATGAGTC (sugars kkkdddddddddkeke, PS) | 58% | – | target mRNA inhibition (MM.1R, 0.074 µM): 21%; target mRNA inhibition (MM.1R, 0.222 µM): 28%; target mRNA inhibition (MM.1R, 0.666 µM): 57%; target mRNA inhibition (MM.1R, 2 µM): 80%
37 | CAGTTGTAAATGAGTC (sugars kkkddddddddkekek, PS) | 76% | – | target mRNA inhibition (MM.1R, 0.074 µM): 26%; target mRNA inhibition (MM.1R, 0.222 µM): 52%; target mRNA inhibition (MM.1R, 0.666 µM): 75%; target mRNA inhibition (MM.1R, 2 µM): 88%
38 | CATAACACGGTGTTGA (sugars k3 d10 k3, PS) | – | 36 | –
39 | CATACAGTGTGATTAA (sugars k3 d10 k3, PS) | – | 53 | –
40 | CATACCTACAAGCAGT (sugars k3 d10 k3, PS) | – | 43 | –
41 | CATAGGTCCTTCAGAT (sugars k3 d10 k3, PS) | -5% | – | –
42 | CATCCGAAAAGACTGG (sugars k3 d10 k3, PS) | 14% | – | –
43 | CATCGAGATCAGTCTC (sugars k3 d10 k3, PS) | – | 65 | –
44 | CATGAGCTCGGTCAAC (sugars k3 d10 k3, PS) | -1% | – | –
45 | CATGGAGGATCATAAA (sugars k3 d10 k3, PS) | – | 22 | –
46 | CATGGGACATTGGTAC (sugars k3 d10 k3, PS) | 18% | – | –

Row | Sequence | target mRNA inhibition (MM.1R, 1 µM) | target mRNA inhibition (SK-MEL-28, 4 µM) [%] | other results
47 | CATGGGAGATCCGGCA (sugars k3 d10 k3, PS) | – | 41 | –
48 | CATGTAGTTGTGAACC (sugars k3 d10 k3, PS) | – | 27 | –
49 | CATTAAAGAGTGGTAC (sugars k3 d10 k3, PS) | – | -3 | –
50 | CATTAGCAATTAGCTC (sugars k3 d10 k3, PS) | -37% | – | –
51 | CATTCCCTAGGTCATA (sugars k3 d10 k3, PS) | – | 54 | –
52 | CATTTCATTTAATGTC (sugars k4 d8 k4, PS) | – | 44 | –
53 | CATTTTATGGACCACG (sugars k3 d10 k3, PS) | – | 62 | –
54 | CCAAAGCATAGAGTCA (sugars k3 d10 k3, PS) | – | 58 | –
55 | CCAAAGGCTCCCGACA (sugars k3 d10 k3, PS) | – | 29 | –
56 | CCAAATGACTTAGTCA (sugars k3 d10 k3, PS) | – | 51 | –
57 | CCAAGATCGAGCGGTG (sugars k3 d10 k3, PS) | – | 37 | –
58 | CCAAGGCTACAGGCAC (sugars k3 d10 k3, PS) | – | 63 | –
59 | CCAAGTAATTTTAAGG (sugars k3 d10 k3, PS) | – | 34 | –
60 | CCAATAGTCTAGCTGG (sugars k3 d10 k3, PS) | – | 19 | –
61 | CCACAACTCTCGCCTC (sugars k3 d10 k3, PS) | -9% | – | –
62 | CCACAACTGCAGTTTG (sugars k3 d10 k3, PS) | – | 23 | –
63 | CCACAAGAAAGAGACC (sugars k3 d10 k3, PS) | – | -9 | –
64 | CCACAAGCAGTGATGT (sugars k3 d10 k3, PS) | 16% | – | –
65 | CCAGGGTGAGCTGCTT (sugars k3 d10 k3, PS) | – | 31 | –
66 | CCAGGTTCATGCCCCG (sugars k3 d10 k3, PS) | – | 54 | –
67 | CCATATACATTGAGGC (sugars k3 d10 k3, PS) | – | 44 | –
68 | CCCAAAGAGAGTGGGT (sugars k3 d10 k3, PS) | – | 0 | –
69 | CCCAAGCCTTGAAGAG (sugars k3 d10 k3, PS) | – | 6 | –

Row | Sequence | target mRNA inhibition (MM.1R, 1 µM) | target mRNA inhibition (SK-MEL-28, 4 µM) [%] | other results
70 | CCCACACCAGCCCGGG (sugars k4 d8 k4, PS) | – | -6 | –
71 | CCCACATGTCCCGTGG (sugars k3 d10 k3, PS) | – | 5 | –
72 | CCCACGAAGGGCAGTG (sugars k3 d10 k3, PS) | – | 35 | –
73 | CCCACGGACGGAGGCG (sugars k3 d10 k3, PS) | – | -9 | –
74 | CCCATATACATTGAGG (sugars k3 d10 k3, PS) | 16% | – | –
75 | CCCCAAAATACTTTGC (sugars k3 d10 k3, PS) | – | 100 | –
76 | CCCCAGTCTACTGCTG (sugars k3 d10 k3, PS) | – | 47 | –
77 | CCCCGAATAGGACCCC (sugars k3 d10 k3, PS) | – | 56 | –
78 | CCCCGAGCTGCACACG (sugars k3 d10 k3, PS) | -5% | – | –
79 | CCCCGCGGTCCCGCTG (sugars k3 d10 k3, PS) | – | 41 | –
80 | CCCCGGAAGAAGGCAC (sugars k3 d10 k3, PS) | – | 36 | –
81 | CCCCTTAGGAACGAAG (sugars k3 d10 k3, PS) | -6% | – | –
82 | CCCGACCCTCCCCAAC (sugars k3 d10 k3, PS) | -35% | – | –
83 | CCCGGCCGATCATCAA (sugars k3 d10 k3, PS) | 23% | – | –
84 | CCCTACCTTTTTTGGC (sugars k3 d10 k3, PS) | -7% | – | –
85 | CCCTAGATAACATGAG (sugars k3 d10 k3, PS) | – | 17 | –
86 | CCCTATCACTGCCAAG (sugars k3 d10 k3, PS) | – | 38 | –
87 | CCCTTAGGAACGAAGA (sugars k3 d10 k3, PS) | – | -6 | –
88 | CCGAATAGGACCCCTA (sugars k3 d10 k3, PS) | – | 32 | –
89 | CCGACACGCGCCGCTC (sugars k3 d10 k3, PS) | – | 30 | –
90 | CCGATGCTTCAAGACA (sugars k3 d10 k3, PS) | 13% | – | –
91 | CCGCACGCAAGGCTCG (sugars k3 d10 k3, PS) | – | 16 | –
92 | CCGCGAAGGCTCCTAC (sugars k3 d10 k3, PS) | – | 14 | –

Source: the OligoGym collection
